For orientation: IC50 means the concentration at which inhibition is half-maximal. Higher therefore signals a need for much substance.

Each structure is given as a SMILES string.

Data on 25 molecules can be found in US11242350B2, “Spirocyclic ROR-gamma modulators” (Escalier Biosciences B.V., priority 2018, dated 2022).

The target in the experiment is RORγt (Homo sapiens (Human), UniProt P51449). Nature of the experiment: Gal4 ligand binding assay (RORγt Gal fusion luciferase reporter assay in HEK293T cells). Format: cell-based. The settings on record: RORγt inverse agonists in RORγt Gal fusion assay. Here is the method: The N-terminal DNA binding domains (DBD) of the native RORγ and RORγt receptors have been substituted with that of the yeast GAL4-DBD and stably transfected in HEK293T cells that also stably express luciferase under the regulation by upstream activation sequence of yeast Gal4. These cells constitutively express high level RORγ activity due to binding of endogenous co-factors. Both agonist and inverse agonist activity can be detected. The assay was performed according to kit manufacturer's instructions as follows. 10 mM compound stocks were diluted serially 1:3 with DMSO and further diluted with provided media to generate 10 titration points from 60 μM to 3 nM. These treatment conditions were added to the plates as 2× media in 100 μL volume. Each plate includes a positive control with 10 titration points as well as 6 negative control wells with vehicle only, with final DMSO concentration of 0.2%. RORγ reporter cells were rapidly thawed and added to the plates in 100 μL volume. The plates were incubated for 24 h in a 37° C. humidified 5% CO2 incubator. Media was removed before the addition of room temperature luciferous detection substrate. After 5 minute incubation, relative light units (RLUs) were quantified using a plate reading luminometer. Data was normalized to […] with only 0.2%0DMSO. Before establishing internal controls, ursolic acid was used as control.
Sequence of RORγt (P51449 269-508): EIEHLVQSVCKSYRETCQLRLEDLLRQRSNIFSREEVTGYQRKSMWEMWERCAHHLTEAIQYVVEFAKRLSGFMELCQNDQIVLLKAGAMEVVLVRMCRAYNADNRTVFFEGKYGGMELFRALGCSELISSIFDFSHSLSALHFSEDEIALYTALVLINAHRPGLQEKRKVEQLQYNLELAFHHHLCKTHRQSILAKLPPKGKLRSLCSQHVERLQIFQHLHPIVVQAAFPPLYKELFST
For orientation: A reporter such as luciferase makes a cellular process visible.
`CCc1cc(CN2CC3(C2)CN(C(=O)OC)C3)ccc1-c1ccc(C(O)(C(F)(F)F)C(F)(F)F)cc1` [Example 40, methyl 6-((2-ethyl-4′-(1,1,1,3,3,3-hexafluoro-2-hydroxypropan-2-yl)-[1,1′-biphenyl]-4-yl)methyl)-2,6-diazaspiro[3.3]heptane-2-carboxylate] showed an IC50 of 50 to 250 nM.

Regarding `CC(C)c1cc(CN2CC3(C2)CN(S(C)(=O)=O)C3)c(F)cc1-c1ccc(C(O)(C(F)(F)F)C(F)(F)F)cc1` [Example 78, 1,1,1,3,3,3-hexafluoro-2-(5′-fluoro-2′-isopropyl-4′-((6-(methylsulfonyl)-2,6-diazaspiro[3.3]heptan-2-yl)methyl)-[1,1′-biphenyl]-4-yl)propan-2-ol], the IC50 is less than 50 nM.

On to `C=C(C)c1cc(CN2CC3(C2)CN(S(C)(=O)=O)C3)ccc1-c1ccc(C(O)(C(F)(F)F)C(F)(F)F)cc1` [Example 44, 1,1,1,3,3,3-hexafluoro-2-(4′-((6-(methylsulfonyl)-2,6-diazaspiro[3.3]heptan-2-yl)methyl)-2′-(prop-1-en-2-yl)-[1,1′-biphenyl]-4-yl)propan-2-ol], for which the IC50 is less than 50 nM. In the case of `Cc1cc(C(O)(C(F)(F)F)C(F)(F)F)ccc1-c1c(F)cc(CN2CC3(C2)CN(S(C)(=O)=O)C3)c(F)c1C1CC1` [Example 89, 2-(2′-cyclopropyl-3′,6′-difluoro-2-methyl-4′-((6-(methylsulfonyl)-2,6-diazaspiro[3.3]heptan-2-yl)methyl)-[1,1′-biphenyl]-4-yl)-1,1,1,3,3,3-hexafluoropropan-2-ol] it was less than 50 nM; in that of `CCc1cc(C(O)(C(F)(F)F)C(F)(F)F)ccc1-c1c(F)cc(CN2CC3(C2)CN(S(C)(=O)=O)C3)c(F)c1CC` [Example 71, 2-(2,2′-diethyl-3′,6′-difluoro-4′-((6-(methylsulfonyl)-2,6-diazaspiro[3.3]heptan-2-yl)methyl)-[1,1′-biphenyl]-4-yl)-1,1,1,3,3,3-hexafluoropropan-2-ol], less than 50 nM. With `CCc1cc(CN2CC3(C2)CN(S(C)(=O)=O)C3)ccc1-c1ccc(C(O)(C(F)(F)F)C(F)(F)F)cc1CC` [Example 77, 2-(2,2′-diethyl-4′-((6-(methylsulfonyl)-2,6-diazaspiro[3.3]heptan-2-yl)methyl)-[1,1′-biphenyl]-4-yl)-1,1,1,3,3,3-hexafluoropropan-2-ol], the IC50 is less than 50 nM.

For the molecule `CS(=O)(=O)N1CC2(CN(Cc3ccc(-c4ccc(C(O)(C(F)(F)F)C(F)(F)F)cc4)c(C(F)(F)F)c3)C2)C1` [Example 46, 1,1,1,3,3,3-hexafluoro-2-(4′-((6-(methylsulfonyl)-2,6-diazaspiro[3.3]heptan-2-yl)methyl)-2′-(trifluoromethyl)-[1,1′-biphenyl]-4-yl)propan-2-ol], the IC50 fell in the range of 50 to 250 nM.

For `Cc1cc(CN2CC3(CN(Cc4ccncc4)C3)C2)ccc1-c1ccc(C(O)(C(F)(F)F)C(F)(F)F)cc1` [Example 51, 1,1,1,3,3,3-hexafluoro-2-(2′-methyl-4′-((6-(pyridin-4-ylmethyl)-2,6-diazaspiro[3.3]heptan-2-yl)methyl)-[1,1′-biphenyl]-4-yl)propan-2-ol], the IC50 was greater than 250 nM. In the case of `CCc1cc(CN2CC3(CCCN(S(C)(=O)=O)C3)C2)ccc1-c1ccc(C(O)(C(F)(F)F)C(F)(F)F)cc1` [Example 19, 2-(2′-ethyl-4′-((6-(methylsulfonyl)-2,6-diazaspiro[3.5]nonan-2-yl)methyl)-[1,1′-biphenyl]-4-yl)-1,1,1,3,3,3-hexafluoropropan-2-ol] it was 50 to 250 nM. Under `CCc1cc(CN2CCC3(C2)CS(=O)(=O)C3)ccc1-c1ccc(C(O)(C(F)(F)F)C(F)(F)F)cc1C` [Example 16, 6-((2-ethyl-4′-(1,1,1,3,3,3-hexafluoro-2-hydroxypropan-2-yl)-2′-methyl-[1,1′-biphenyl]-4-yl)methyl)-2-thia-6-azaspiro[3.4]octane 2,2-dioxide] stands less than 50 nM.

`CCc1cc(CN2CCC(CS(C)(=O)=O)CC2)ccc1-c1ccc(C(O)(C(F)(F)F)C(F)(F)F)cc1` [Example 9, 2-(2′-ethyl-4′-((4-((methylsulfonyl)methyl)piperidin-1-yl)methyl)-[1,1′-biphenyl]-4-yl)-1,1,1,3,3,3-hexafluoropropan-2-ol] yielded an IC50 of 50 to 250 nM. Under `CCc1cc(CN2CCC3(CC2)CN(S(C)(=O)=O)C3)ccc1-c1ccc(C(O)(C(F)(F)F)C(F)(F)F)cc1` [Example 4, 2-(2′-ethyl-4′-((2-(methylsulfonyl)-2,7-diazaspiro[3.5]nonan-7-yl)methyl)-[1,1′-biphenyl]-4-yl)-1,1,1,3,3,3-hexafluoropropan-2-ol] stands less than 50 nM; under `CCc1cc(CN2CC3(C2)CN(S(C)(=O)=O)C3)ccc1-c1ccc(C(O)(C(F)(F)F)C(F)(F)F)cc1Cl` [Example 75, 2-(2-chloro-2′-ethyl-4′-((6-(methylsulfonyl)-2,6-diazaspiro[3.3]heptan-2-yl)methyl)-[1,1′-biphenyl]-4-yl)-1,1,1,3,3,3-hexafluoropropan-2-ol], less than 50 nM.

On to `CCc1cc(CN2CC3(C2)CN(S(C)(=O)=O)C3)cc(F)c1-c1ccc(C(O)(C(F)(F)F)C(F)(F)F)cc1` [Example 35, 2-(2′-ethyl-6′-fluoro-4′-((6-(methylsulfonyl)-2,6-diazaspiro[3.3]heptan-2-yl)methyl)-[1,1′-biphenyl]-4-yl)-1,1,1,3,3,3-hexafluoropropan-2-ol], for which the 50% inhibitory concentration (IC50) is less than 50 nM.

Regarding `CCc1cc(CN2CCC3(C2)CS(=O)(=O)C3)ccc1-c1ccc(C(O)(C(F)(F)F)C(F)(F)F)cc1` [Example 17, 6-((2-ethyl-4′-(1,1,1,3,3,3-hexafluoro-2-hydroxypropan-2-yl)-[1,1′-biphenyl]-4-yl)methyl)-2-thia-6-azaspiro[3.4]octane 2,2-dioxide], the IC50 lay within 50 to 250 nM. Under `CCc1cc(CN2CC3(C2)CN(S(C)(=O)=O)C3)cnc1-c1ccc(C(O)(C(F)(F)F)C(F)(F)F)cc1C` [Example 62, 2-(4-(3-ethyl-5-((6-(methylsulfonyl)-2,6-diazaspiro[3.3]heptan-2-yl)methyl)pyridin-2-yl)-3-methylphenyl)-1,1,1,3,3,3-hexafluoropropan-2-ol] stands 50 to 250 nM; under `CCc1cc(CN2CC3(C2)C[S+]([O-])C3)ccc1-c1ccc(C(O)(C(F)(F)F)C(F)(F)F)cc1` [Example 27, 6-((2-ethyl-4′-(1,1,1,3,3,3-hexafluoro-2-hydroxypropan-2-yl)-[1,1′-biphenyl]-4-yl)methyl)-2-thia-6-azaspiro[3.3]heptane 2-oxide], 50 to 250 nM; under `CCC(C)c1cc(CN2CC3(C2)CN(S(C)(=O)=O)C3)ccc1-c1ccc(C(O)(C(F)(F)F)C(F)(F)F)cc1` (stereo not shown) [Example 13, 2-(2′-(sec-butyl)-4′-((6-(methylsulfonyl)-2,6-diazaspiro[3.3]heptan-2-yl)methyl)-[1,1′-biphenyl]-4-yl)-1,1,1,3,3,3-hexafluoropropan-2-ol], less than 50 nM. Under `CCc1cc(CN2CC3(C2)CN(S(C)(=O)=O)C3)cnc1-c1ccc(C(O)(C(F)(F)F)C(F)(F)F)cc1` [Example 52, 2-(4-(3-ethyl-5-((6-(methylsulfonyl)-2,6-diazaspiro[3.3]heptan-2-yl)methyl)pyridin-2-yl)phenyl)-1,1,1,3,3,3-hexafluoropropan-2-ol] stands 50 to 250 nM; under `CS(=O)(=O)N1CC2(CN(Cc3ccc(-c4ccc(C(O)(C(F)(F)F)C(F)(F)F)cc4)c(Cl)c3)C2)C1` [Example 47, 2-(2′-chloro-4′-((6-(methylsulfonyl)-2,6-diazaspiro[3.3]heptan-2-yl)methyl)-[1,1′-biphenyl]-4-yl)-1,1,1,3,3,3-hexafluoropropan-2-ol], greater than 250 nM. `CCc1cc(CN2CCC3(CNC(=O)C3)C2)ccc1-c1ccc(C(O)(C(F)(F)F)C(F)(F)F)cc1` (stereo not shown) [Example 54, 7-((2-ethyl-4′-(1,1,1,3,3,3-hexafluoro-2-hydroxypropan-2-yl)-[1,1′-biphenyl]-4-yl)methyl)-2,7-diazaspiro[4.4]nonan-3-one] showed an IC50 of 50 to 250 nM. In the case of `CCc1cc(C(O)(C(F)(F)F)C(F)(F)F)ccc1-c1c(F)cc(CN2CC3(C2)CN(S(C)(=O)=O)C3)c(F)c1C(C)C` [Example 85, 2-(2-ethyl-3′,6′-difluoro-2′-isopropyl-4′-((6-(methylsulfonyl)-2,6-diazaspiro[3.3]heptan-2-yl)methyl)-[1,1′-biphenyl]-4-yl)-1,1,1,3,3,3-hexafluoropropan-2-ol] it was less than 50 nM; in that of `CCc1cc(CN2CCC3(C2)CN(S(C)(=O)=O)C3)ccc1-c1ccc(C(O)(C(F)(F)F)C(F)(F)F)cc1` [Example 30, 2-(2′-ethyl-4′-((2-(methylsulfonyl)-2,6-diazaspiro[3.4]octan-6-yl)methyl)-[1,1′-biphenyl]-4-yl)-1,1,1,3,3,3-hexafluoropropan-2-ol], less than 50 nM. In the case of `CC(=O)N1CC2(CN(Cc3ccc(-c4ccc(C(O)(C(F)(F)F)C(F)(F)F)cc4)c(C)c3)C2)C1` [Example 49, 1-(6-((4′-(1,1,1,3,3,3-hexafluoro-2-hydroxypropan-2-yl)-2-methyl-[1,1′-biphenyl]-4-yl)methyl)-2,6-diazaspiro[3.3]heptan-2-yl)ethan-1-one] it was greater than 250 nM; in that of `Cc1cc(C(O)(C(F)(F)F)C(F)(F)F)ccc1-c1c(F)cc(CN2CC3(C2)CN(S(C)(=O)=O)C3)c(F)c1C(C)C` [Example 84, 2-(3′,6′-difluoro-2′-isopropyl-2-methyl-4′-((6-(methylsulfonyl)-2,6-diazaspiro[3.3]heptan-2-yl)methyl)-[1,1′-biphenyl]-4-yl)-1,1,1,3,3,3-hexafluoropropan-2-ol], less than 50 nM.
